The values that follow come from US20120157492A1, “ANTIBIOTIC DRUG” (priority 2008, published 2012).

In brackets after ≈: the same amount, converted by molar mass. Where two headings read alike, the source gives them in different places.

Series [1] has as its system MRSA-CIP (R): Clinical isolate of MRSA-ciprofloxacin resistant strain. The series is described as follows: MIC by broth microdilution, ciprofloxacin-resistant MRSA. The class given is cell-based, S. aureus. To be noted: Staphylococcus aureus. The method, then: (§1) Minimum inhibitory concentrations (MICs) were determined by the Broth microdilution method following the guidelines of the Clinical and Laboratory Standards Institute (CLSI). See, e.g., “Methods for Dilution Antimicrobial Susceptibility Tests for Bacterial That Grow Aerobically,” CLSI 2006, Approved standard-7th Ed. M7-A7; and “Performance standards for Antimicrobial Susceptibility Testing,” CLSI 2007, 17th Informational Supplement, M100-S17. Note that since there is no CLSI recommended broth microdilution (BMD) method for N. gonorrhoeae, the BMD method recommended for N. meningitis was used.
(§2) MICs were determined using the broth microdilution method.

The subject of series [2] is MRSA-CIP (S): Clinical isolate of MRSA-ciprofloxacin sensitive strain. Put plainly: MIC by broth microdilution, ciprofloxacin-sensitive MRSA. In kind it is cell-based. The note with it: Staphylococcus aureus. The method, then:
as §1, §2

In series [3] the test system is S. pneumo-Levo (R): Clinical isolate of S. pnemoniae Levofloxacin resistant strains. The series is described as follows: MIC by broth microdilution, levofloxacin-resistant S. pneumoniae. To be noted: Streptococcus pneumoniae. In kind it is cell-based. As for the experimental part: as §1, §2
For series [4], the system named is S. pneumo-Levo (S): Clinical isolate of S. pnemoniae Levofloxacin sensitive strains. Put plainly: MIC by broth microdilution, levofloxacin-sensitive S. pneumoniae. In kind it is cell-based. To be noted: Streptococcus pneumoniae. As for the experimental part: as §1, §2
Series [5] concerns 8 ATCC reference strains and 10 clinical strains (E. coli, P. aeruginosa, S. aureus, E. faecalis, E. faecium, S. pneumoniae, H. influenzae, N. gonorrhoeae). Put plainly: Inhibition of bacteria, MIC by broth microdilution (CLSI). In kind it is cell-based. The method, then:
Minimum inhibitory concentrations (MICs) were determined by the Broth microdilution method following the guidelines of the Clinical and Laboratory Standards Institute (CLSI). See, e.g., “Methods for Dilution Antimicrobial Susceptibility Tests for Bacterial That Grow Aerobically,” CLSI 2006, Approved standard-7th Ed. M7-A7; and “Performance standards for Antimicrobial Susceptibility Testing,” CLSI 2007, 17th Informational Supplement, M100-S17. Note that since there is no CLSI recommended broth microdilution (BMD) method for N. gonorrhoeae, the BMD method recommended for N. meningitis was used. Each of the three compounds was dissolved in water before sterile filtration to prepare stock solutions. The stock solutions were stored at −20° C. in aliquots. […] The 2× stock was dispensed at 50 μl per well into the 96-well microtitre plates. The plates were either used fresh or stored at −80° C. before use. To conduct the test, an aliquot of the frozen bacterial isolates was subcultured onto sheep blood agar for all species except that H. influenzae and N. gonorrhoeae were subculuted on chocolate plates. All plate media were purchased from BBL (Becton Dickinson Microbiology System, Cockeysville, Md.). The day before the antimicrobial susceptibility testing, all bacteria were sub-cultured again to obtain fresh starting cultures. […]

The nature of series [6]: Pharmacokinetic study in rats (IV and PO). The class given is in vivo. To be noted: male, Sprague-Dawley, plasma, rat; for half-life: read-out: terminal half-life (t1/2) (converted); for bioavailability: oral, read-out: oral bioavailability (% F). The method, then: Each of the malic acid salts of Compound 1 and Compound 1′ was dissolved in 0.7% lactic acid and 3% dextrose in water at a pH about 4.5 and 2.5% L-glutamic acid in water at a pH about 5.4 to provide solutions used in this pharmacokinetic study. Male Sprague-Dawley rats (BioLASCO Taiwan Co., Ltd., Taipei, Taiwan) weighing 300-400 g were surgically implanted with polyethylene (PE-50) cannula in the jugular vein for blood sampling while under pentobarbital anesthesia the day before the in-life phase. The rats were treated with a Compound 1 or Compound 1′ solution via intravenous injection (IV) at a dose of 2.5 mg/kg (N=3) or by oral gavage (PO) at a dose of 5 mg/kg (N=4). Dose levels were based on the free base form of the compounds. For PO study, the rats were fasted overnight with water ad libitum, and then dosed the next day. Serial blood samples were collected from animals pre-dose, at 5, 10 (IV only), 15, and 30 min, and at 1, 2, 4, 6, 8, 12, and 24 hours post-dose and heparinized plasma was recovered after centrifugation. Concentrations of the test compound in blood plasma were determined by liquid chromatography-mass spectrometry analysis (MDS SCIEX, API 3000, Applied Biosystems, CA, USA) with a lower limit of quantitation of 2 ng/mL. Standard pharmacokinetic parameters were assessed by non-compartmental analysis using WinNonlin (Version 4.0, Pharsight, CA, USA). The area under the concentration vs. time curve from the time of dosing to infinity (AUC(0-inf)) was calculated by the linear trapezoidal rule. Oral bioavailability (% F) was calculated from the dose-normalized ratio of plasma exposure following oral administration to the intravenous plasma exposure in the rats by the following equation: % F=(AUCpo/AUCiv)×(Div/Dpo)×100% where D is the dose and AUC is the area-under-the-plasma-concentration-time-curve from 0 to infinity.

As to `COc1c(N2C[C@H](C)C[C@H](N)C2)ccc2c(=O)c(C(=O)O)cn(C3CC3)c12` [Compound 1, 7-((3S,5R)-3-amino-5-methylpiperidin-1-yl)-1-cyclopropyl-8-methoxy-4-oxo-1,4-dihydroquinoline-3-carboxylic acid], the MIC50 stood at 1 µg/mL (≈ 2.69 µM) in series [1], 0.03 µg/mL (≈ 0.0808 µM) in series [2], 0.25 µg/mL (≈ 0.673 µM) in series [3] and 0.03 µg/mL (≈ 0.0808 µM) in series [4]. In addition, the MIC90 stood at 1 µg/mL (≈ 2.69 µM) in series [1], 0.06 µg/mL (≈ 0.162 µM) in series [2], 1 µg/mL (≈ 2.69 µM) in series [3] and 0.06 µg/mL (≈ 0.162 µM) in series [4]. In addition, the “MICs against the tested bacterial strains, compared with ciprofloxacin” value in series [5] is given as “low MICs comparable with, or even lower than, that of ciprofloxacin”. The “efficacy in inhibiting bacteria compared to malic acid salt of Compound 1′” value in series [5] is “more efficacious in inhibiting in some S. aureus, H. influenzae, and P. aeruginosa stains”. Further, the AUC(0-inf) in series [6] (IV injection, 2.5 mg/kg) turned out to be 1530 ± 66 ng·h/mL; in series [6] (PO, 5 mg/kg) it was 1400 ± 464 ng·h/mL. In addition, the half-life in series [6] (IV injection, 2.5 mg/kg) is 2.47 ± 0.801 h; in series [6] (PO, 5 mg/kg), 3.58 ± 1.7 h. Moreover, the Cmax in series [6] (PO, 5 mg/kg, read-out: maximum of concentration (Cmax)) came out at 622 ± 170 ng/mL. Further, in series [6] (PO, 5 mg/kg, read-out: time at the maximum of concentration (Tmax)), the Tmax is 0.25 h. For the same molecule, the bioavailability in series [6] (5 mg/kg) is approximately 45.9%.
With `COc1c(N2C[C@@H](C)C[C@H](N)C2)ccc2c(=O)c(C(=O)O)cn(C3CC3)c12` [Compound 1′, reference compound], the MIC50 in series [1] was determined as 1 µg/mL (≈ 2.69 µM); in series [2], 0.03 µg/mL (≈ 0.0808 µM); in series [3], 0.5 µg/mL (≈ 1.35 µM); in series [4] it was 0.06 µg/mL (≈ 0.162 µM). Besides, the MIC90 in series [1] was found to be 2 µg/mL (≈ 5.38 µM); in series [2], 0.06 µg/mL (≈ 0.162 µM); in series [3] it was 2 µg/mL (≈ 5.38 µM); in series [4] it was 0.06 µg/mL (≈ 0.162 µM). Further, in series [6] (5 mg/kg), the bioavailability was determined as 13.2 ± 3.3%.
As for `C[C@H]1COc2c(N3CCN(C)CC3)c(F)cc3c(=O)c(C(=O)O)cn1c23` [Levo, Levofloxacin], the MIC50 is more than 128 µg/mL in series [3] and 16 µg/mL (≈ 44.3 µM) in series [4].
